Assay [1] concerns astrocytes. The experiment in a line: Astrocyte survival under t-buOOH oxidative stress in the absence of neurons. In kind it is cell-based, mouse. How it is done:
To determine whether P2Y-R enhanced mitochondrial metabolism in astrocytes affected neuronal resistance to oxidative stress, we prepared co-cultures of neurons and astrocytes using corning transwell-clear permeable supports, which physically separates the two cell-types by ˜1 mm (# 07-200-170, Fisher scientific). Primary cultures of astrocytes were directly prepared in transwell supports until they were ˜70% confluent. Mouse cortical neurons were then cultured onto glass bottom mattek plates and maintained in B-27/Neurobasal Medium to control glia contamination to less than 0.5% (Invitrogen). After four days, co-cultures were treated with t-buOOH (100 μM) for 4 hours with and without pre-stimulation of ATP (2 μM, 10 minutes). Cells were then stained with the DNA intercalating dye Hoechst 33342 (10 μg/ml, Molecular Probes, #H-3570) and calcein AM (2 μM, Molecular Probes, #C3100). […] We then tested the neuroprotective affects of isoform specific purinergic ligands 2-MeSADP(P2Y1-R) and UTP(P2Y2-R). FIG. 6A depicts histogram plots of the percentage of neurons alive when cocultured with young or old astrocytes. FIG. 6B depicts histogram plots of the percentage of neurons alive pretreated with either 2-MeSADP (2 μM) or UTP (50 μM) for 10 min. A ten-minute pre-treatment of astrocytes with either 2-MeSADP (2 μM), or UTP (50 μM) was equally protective against oxidative stress induced cell death. The % neurons alive after 4.5 hours of t-buOOH treatment was 51±4% (n=1664 neurons, pooled from 4 experiments) for untreated controls, 70±2% (n=2541 neurons, pooled from 4 experiments) for 2-MeSADP and 71±3% (n=1189 neurons, pooled from 4 experiments) for UTP treated co-cultures. […] The % astrocytes alive after 4.5 hours of t-buOOH treatment, in the absence of neurons, was 60±4% (n=294 cells) for control, 77±4% (n=294) for 2-MeSADP and 79±3% (n=333) for UTP treated astrocytes.
It should be noted that stimulation of neuroprotective response in astrocytes is not restricted to signaling through P2Y receptors. For example we have shown that administration of the membrane permeable IP3 analog, IP3BM, is capable of protecting astrocytes from oxidative damage. Thus, it appears possible that any stimulus capable of evoking IP3-mediated calcium release in astrocytes is equally suitable for application in the present treatment methods. To test this possibility, astrocyte cultures subjected to oxidative stress were treated with either 2-MeSADP, or the metabotropic glutamate receptor agonist (1 S, 3 R)-1-aminocyclopentane-1,3-dicarboxylic acid (ACPD), or were left untreated.
To directly examine the role of IP3 gated Ca^2+ release in P2Y-R enhanced astrocyte protection, we used a membrane permeant butyryloxymethyl ester of IP3 (IP3-BM). Cultures of astrocytes were exposed to IP3-BM and Ca^2+ levels were assessed using 2-photon imaging of Fura 2. Ca^2+ increases in response to IP3-BM application were easily detected, but they occurred over a much slower time course than those initiated by ATP treatment. This was not unexpected because of the slow process of IP3-BM movement across the lipid bilayer as well as the time needed to cleave the ester and accumulate IP3 in the cell. Because of the slower time course, we pretreated astrocytes for 20 minutes prior to exposing them to the oxidant stress t-BuOOH. […] The protective effect of IP3-BM treatment was blocked by the IP3R inhibitor, XeC. […]

Assay [2] deals with Mouse cortical neurons. Briefly: Neuronal survival in transwell co-culture with astrocytes under t-buOOH oxidative stress (Hoechst/calcein). The note with it: co-cultures; 10 min pre-treatment 2-MeSADP 2 μM or UTP 50 μM; 4.5 hours of t-buOOH. In kind it is cell-based. How it is done: Primary cultures of astrocytes were prepared as previously published (Lin et al., 2005). C57BL/6 male mice were purchased from the National Institute of Aging and maintained in standard accredited housing conditions at the University of Texas Health Science Center Animal Facility. Animal protocols were approved by our Institutional Animal Care Use Committee. Astrocytes were cultured in DMEM F-12 media (Invitrogen, # 11039-021) supplemented with 2 mM glutamine, nonessential amino acids, 10% fetal calf serum, 100 U/ml penicillin/streptomycin (Cambrex BioScience Walkersville, #17-602E) and 1% fungizone (Invitrogen, #15290-018) at 37° C. in an atmosphere containing 5% CO2. The culture medium was changed every 3-5 days. Confluent cells were gently removed by a trypsin EDTA solution and re-plated on 35 mm glass bottom chambers (Bioptechs #04200415C) prior to imaging experiments 3-4 days later. Cells were maintained in plastic culture flasks until the final re-seeding of cells onto a glass bottom chamber and were passed up to 3 times for astrocyte only experiments. For co-culture experiments with neurons, primary astrocytes were plated directly onto corning transwell-clear permeable supports, which physically separates the two cell-types by ˜1 mm (# 07-200-170, Fisher scientific). Astrocytes were cultured in transwells until they were ˜70% confluent. Mouse cortical neurons (Cambrex Bio Science Walkersville Inc., # M-CX-300) were then cultured onto 6 well mat-tek glass bottom plates and maintained in Neurobasal Medium (Invitrogen, # 21103-049), 2 mM L-Glutamine (Cambrex BioScience Walkersville, #17-605E), 100 U/ml penicillin/streptomycin (Cambrex BioScience Walkersville, #17-602E) and B-27 with (Invitrogen, #17504-044) and without antioxidants (Invitrogen, #10889-038), which controls glia contamination to less than 0.5%. The transwell supports with cultured astrocytes were placed in the neuron seeded glass bottom chambers for four days before imaging and both cell types were then maintained in neuronal media. For neuron only experiments, the astrocytes on the transwell supports were removed prior to treatments and imaging.
Sensitivity of neurons to oxidative stress was assessed by treating cultures with 100 μM tert-butyl hydrogen peroxide (t-BuOOH, Sigma, #B-2633) for 3 hours. Neurons were then stained with Hoechst 33342 (10 μg/ml, Molecular Probes, #H-3570) to label all cell nuclei and calcein AM (2 μM, #C3100, Molecular Probes, #C3100). […] Calcein fluorescence is only observed in live cells that have maintained their plasma membrane integrity. Images were acquired on an inverted Nikon TE300 microscope with a Hamamatsu ORCAER camera and Open lab software (Improvision).
To determine whether P2Y-R enhanced mitochondrial metabolism in astrocytes affected neuronal resistance to oxidative stress, we prepared co-cultures of neurons and astrocytes using corning transwell-clear permeable supports, which physically separates the two cell-types by ˜1 mm (# 07-200-170, Fisher scientific). Primary cultures of astrocytes were directly prepared in transwell supports until they were ˜70% confluent. Mouse cortical neurons were then cultured onto glass bottom mattek plates and maintained in B-27/Neurobasal Medium to control glia contamination to less than 0.5% (Invitrogen). After four days, co-cultures were treated with t-buOOH (100 μM) for 4 hours with and without pre-stimulation of ATP (2 μM, 10 minutes). Cells were then stained with the DNA intercalating dye Hoechst 33342 (10 μg/ml, Molecular Probes, #H-3570) and calcein AM (2 μM, Molecular Probes, #C3100). […] We then tested the neuroprotective affects of isoform specific purinergic ligands 2-MeSADP(P2Y1-R) and UTP(P2Y2-R). FIG. 6A depicts histogram plots of the percentage of neurons alive when cocultured with young or old astrocytes. FIG. 6B depicts histogram plots of the percentage of neurons alive pretreated with either 2-MeSADP (2 μM) or UTP (50 μM) for 10 min. […]

Assay [3] concerns astrocytes. The experiment in a line: Intracellular ATP determination (luciferin-luciferase). In kind it is cell-based, mouse. As to the method: Intracellular ATP was measured using a luciferin-luciferase kit (Invitrogen, #22066). Plated astrocytes were trypsinized and washed 3× with PBS buffer (GIBCO #14190). An aliquot of cells was set aside to measure the cell density with a hemocytometer. The cells were then suspended in a lysate buffer (4 mM EDTA and 100 mM Tris, pH 7.75) and immediately heated to 100° C. for 5 minutes to minimize enzymatic changes in ATP levels. The supernatant was collected after a 10,000 g centrifugation for 1 minute and used with the luciferin/luciferase kit according to the manufacturer's instructions. Luminescence was measured with a Synergy™ HT Multi-Detection Microplate Reader (BioTek). ATP levels were normalized by cell density.
Our next approach to investigate the role of mitochondrial metabolism was to directly measure ATP levels in cultures astrocytes using a luciferin-luciferase assay (Invitrogen). Astrocytes were cultured as described above, trypsinized and washed with buffer. The cells were then suspended in a lysate buffer and immediately heated to 100° C. (5 min) to minimize enzymatic changes in ATP levels. After centrifugation, the ATP dependent luminescence of supernatant was measured with a microplate reader (Biotek). FIG. 5C depicts histograms of the direct measurement of intracellular ATP levels relative to untreated cells (control), P2Y-R stimulated (MeADP), then the same measurements in the presence of oligomycin (oligo) or ruthenium 360 (Ru360). We estimated that the resting intracellular ATP concentration in cultured astrocytes was 0.31±0.14 μM ATP/10^4 cells (n=3). […] Finally, we tested whether ruthenium 360 (Ru360; Calbiochem), a polycation that inhibits the electrogenic mitochondrial Ca^2+ uniporter, affected mitochondrial ATP production.

Regarding `N[C@@]1(C(=O)O)CC[C@@H](C(=O)O)C1` [ACPD, (1 S, 3 R)-1-aminocyclopentane-1,3-dicarboxylic acid], in assay [1] (10 minutes pretreatment, 4 hours of t-BuOOH, mean+SD), the “% of astrocytes alive” value is 66+9%. Further, in assay [1] (astrocyte cultures subjected to oxidative stress, versus untreated), the “astrocyte resistance to oxidative stress” value is on record as “enhanced”.

On to `O=c1ccn([C@@H]2O[C@H](COP(=O)(O)OP(=O)(O)OP(=O)(O)O)[C@@H](O)[C@H]2O)c(=O)[nH]1` [UTP, uridine 5′-triphosphate], for which the “% astrocytes alive” value in assay [1] (absence of neurons, 4.5 hours of t-buOOH, 2-MeSADP or UTP) turned out to be 79±3%. Also, the “% neurons alive” value in assay [2] is reported as 71±3%.

As for ruthenium 360 [Ru360], the “effect on ability of 2-MeSADP to increase ATP levels” value in assay [3] (Ru360 1 μM 30 min + 2-MeSADP) was “completely blocked”. In addition, the “basal ATP levels, % of control values” in assay [3] (Ru360 1 μM, 30 min) is reported as 60.5%±10.5 % of control.

These data come from patent US8618074B2, “GPCR enhanced neuroprotection to treat brain injury” (Board of Regents of the University of Texas System, priority 2007, dated 2013).
